Experimental data as given in ChEMBL document CHEMBL1201862, “PubChem BioAssay data set” (2004).
The source made the active and inactive calls.

Legend:
[1] = tested on: Streptococcus sp. 'group A'; assay: Streptococcus pyogenes SK(-)GAS viability under kanamycin – luminescence, BacTiterGlo, confirmation, counter-screen for streptokinase expression inhibitor project, dose response (AID 1900); assay type: functional, organism-based
cells = assay type: functional
Streptococcus = assay: GAS UMAA2166 growth inhibition – luminescence, BacTiterGlo, counter-screen for streptokinase expression inhibitor project, dose response (AID 1915); assay type: functional, organism-based;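 also: potency for reduction of bacterial viability or growth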
[2] = biological target: T1, Rac GTPase-activating protein 1 (Homo sapiens, UniProt Q9H0H5); assay: blockers of MgcRacGAP-driven Rac1 GTP hydrolysis – biochemical, ADP Hunter fluorescence, primary and confirmatory, confirmation (AID 624330); assay type: functional
T1 sequence (Q9H0H5 whole entry): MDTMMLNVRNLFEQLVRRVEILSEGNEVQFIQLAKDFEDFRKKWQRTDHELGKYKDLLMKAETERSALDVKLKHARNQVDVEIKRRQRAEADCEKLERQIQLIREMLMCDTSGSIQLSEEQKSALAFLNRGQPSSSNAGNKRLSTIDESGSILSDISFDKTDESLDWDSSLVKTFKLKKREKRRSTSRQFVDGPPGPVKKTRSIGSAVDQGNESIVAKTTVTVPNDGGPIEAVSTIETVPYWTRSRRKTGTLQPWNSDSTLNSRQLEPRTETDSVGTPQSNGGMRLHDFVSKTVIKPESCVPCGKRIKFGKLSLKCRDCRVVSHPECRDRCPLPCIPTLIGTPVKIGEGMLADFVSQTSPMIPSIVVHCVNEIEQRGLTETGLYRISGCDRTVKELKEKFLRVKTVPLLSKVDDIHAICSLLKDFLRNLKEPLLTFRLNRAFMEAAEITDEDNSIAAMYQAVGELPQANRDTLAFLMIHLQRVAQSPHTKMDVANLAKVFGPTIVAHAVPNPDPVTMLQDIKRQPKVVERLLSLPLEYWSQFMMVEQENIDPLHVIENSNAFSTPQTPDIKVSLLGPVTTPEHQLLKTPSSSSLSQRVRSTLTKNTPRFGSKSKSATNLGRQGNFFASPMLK

[3] = biological target: T2, Heat shock factor protein 1 (Mus musculus, UniProt P38532); assay: decrease of HSF1-responsive luciferase luminescence – cell-based, NIH3T3, dose retest, confirmation (AID 2382); assay type: functional;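 also: NIH3T3 fibroblasts with HSF1-driven luciferase reporter stressed by proteasome inhibitor MG132; luminescence from HSF1-driven luciferase expression after 8 hours of MG132 stress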
T2 sequence (P38532 whole entry): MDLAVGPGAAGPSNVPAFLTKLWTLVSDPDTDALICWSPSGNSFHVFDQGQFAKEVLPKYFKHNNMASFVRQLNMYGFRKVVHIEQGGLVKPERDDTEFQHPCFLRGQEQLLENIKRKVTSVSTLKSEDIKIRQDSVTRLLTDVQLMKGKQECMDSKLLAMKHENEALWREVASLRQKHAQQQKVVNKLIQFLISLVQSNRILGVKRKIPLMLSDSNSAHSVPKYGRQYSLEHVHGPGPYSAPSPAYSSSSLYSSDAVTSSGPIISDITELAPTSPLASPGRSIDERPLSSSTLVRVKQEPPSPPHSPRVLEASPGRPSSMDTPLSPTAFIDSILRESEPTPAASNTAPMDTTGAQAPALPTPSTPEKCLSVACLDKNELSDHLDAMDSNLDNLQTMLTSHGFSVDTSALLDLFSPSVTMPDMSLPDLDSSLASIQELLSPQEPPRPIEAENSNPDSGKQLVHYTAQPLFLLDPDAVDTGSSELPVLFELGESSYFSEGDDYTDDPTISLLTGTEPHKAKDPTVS

Cytochrome P450 1A2 = biological target: T3, Cytochrome P450 1A2 (Homo sapiens, UniProt P05177);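 also: PubChem cytochrome P450 panel assay, CYP1A2 panel member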
T3 sequence (P05177 whole entry): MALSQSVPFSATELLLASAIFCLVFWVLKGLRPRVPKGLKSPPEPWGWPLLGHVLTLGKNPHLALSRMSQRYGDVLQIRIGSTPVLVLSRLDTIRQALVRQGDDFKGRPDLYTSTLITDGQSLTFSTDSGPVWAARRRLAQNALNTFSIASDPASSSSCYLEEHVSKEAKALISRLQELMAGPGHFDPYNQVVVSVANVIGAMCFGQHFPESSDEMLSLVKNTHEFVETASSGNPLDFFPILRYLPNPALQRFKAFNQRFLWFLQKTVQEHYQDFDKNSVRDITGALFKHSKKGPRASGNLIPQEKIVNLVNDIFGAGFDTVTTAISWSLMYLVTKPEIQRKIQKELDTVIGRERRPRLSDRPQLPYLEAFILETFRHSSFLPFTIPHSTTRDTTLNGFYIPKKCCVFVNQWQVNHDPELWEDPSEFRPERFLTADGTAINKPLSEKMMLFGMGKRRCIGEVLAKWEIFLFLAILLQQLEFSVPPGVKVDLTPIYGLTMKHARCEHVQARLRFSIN

[4] = biological target: T4, Replicative DNA helicase DnaB (Mycobacterium tuberculosis, UniProt P9WMR3); assay: DnaB intein splicing inhibitors, dose response, biochemical, cell-free fluorescence (AID 449749); assay type: functional
T4 sequence (P9WMR3 whole entry): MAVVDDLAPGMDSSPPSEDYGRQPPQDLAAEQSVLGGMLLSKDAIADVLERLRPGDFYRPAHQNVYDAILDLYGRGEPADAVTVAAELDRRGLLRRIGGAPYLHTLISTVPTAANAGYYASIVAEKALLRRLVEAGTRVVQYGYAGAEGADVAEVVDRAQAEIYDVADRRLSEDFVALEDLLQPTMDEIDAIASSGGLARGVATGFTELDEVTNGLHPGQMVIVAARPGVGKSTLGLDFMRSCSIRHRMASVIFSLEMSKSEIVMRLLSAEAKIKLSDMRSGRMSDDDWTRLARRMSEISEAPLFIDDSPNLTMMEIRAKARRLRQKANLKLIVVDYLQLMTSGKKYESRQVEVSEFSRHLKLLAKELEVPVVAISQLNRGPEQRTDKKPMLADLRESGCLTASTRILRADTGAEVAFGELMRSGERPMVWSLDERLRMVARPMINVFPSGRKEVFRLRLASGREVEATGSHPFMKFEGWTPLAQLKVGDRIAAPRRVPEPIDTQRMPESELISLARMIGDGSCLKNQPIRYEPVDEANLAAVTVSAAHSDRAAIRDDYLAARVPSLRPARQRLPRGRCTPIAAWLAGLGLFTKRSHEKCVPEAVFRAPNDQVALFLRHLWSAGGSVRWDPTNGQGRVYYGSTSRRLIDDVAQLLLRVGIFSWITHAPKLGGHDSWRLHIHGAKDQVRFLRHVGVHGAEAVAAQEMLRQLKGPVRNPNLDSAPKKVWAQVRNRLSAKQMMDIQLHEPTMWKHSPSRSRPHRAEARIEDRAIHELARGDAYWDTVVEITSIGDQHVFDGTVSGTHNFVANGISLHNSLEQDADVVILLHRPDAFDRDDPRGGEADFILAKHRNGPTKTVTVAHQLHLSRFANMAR

Protein RecA = biological target: T5, Protein RecA (Mycobacterium tuberculosis, UniProt P9WHJ3); assay: Fluorescence Cell-Free Homogeneous Dose Retest to Identify Inhibitors of RecA-Intein Splicing Activity. [Related pubchem assays (depositor defined):AID2097, AID2223, AID489010, AID492950]; assay type: functional
T5 sequence (P9WHJ3 whole entry): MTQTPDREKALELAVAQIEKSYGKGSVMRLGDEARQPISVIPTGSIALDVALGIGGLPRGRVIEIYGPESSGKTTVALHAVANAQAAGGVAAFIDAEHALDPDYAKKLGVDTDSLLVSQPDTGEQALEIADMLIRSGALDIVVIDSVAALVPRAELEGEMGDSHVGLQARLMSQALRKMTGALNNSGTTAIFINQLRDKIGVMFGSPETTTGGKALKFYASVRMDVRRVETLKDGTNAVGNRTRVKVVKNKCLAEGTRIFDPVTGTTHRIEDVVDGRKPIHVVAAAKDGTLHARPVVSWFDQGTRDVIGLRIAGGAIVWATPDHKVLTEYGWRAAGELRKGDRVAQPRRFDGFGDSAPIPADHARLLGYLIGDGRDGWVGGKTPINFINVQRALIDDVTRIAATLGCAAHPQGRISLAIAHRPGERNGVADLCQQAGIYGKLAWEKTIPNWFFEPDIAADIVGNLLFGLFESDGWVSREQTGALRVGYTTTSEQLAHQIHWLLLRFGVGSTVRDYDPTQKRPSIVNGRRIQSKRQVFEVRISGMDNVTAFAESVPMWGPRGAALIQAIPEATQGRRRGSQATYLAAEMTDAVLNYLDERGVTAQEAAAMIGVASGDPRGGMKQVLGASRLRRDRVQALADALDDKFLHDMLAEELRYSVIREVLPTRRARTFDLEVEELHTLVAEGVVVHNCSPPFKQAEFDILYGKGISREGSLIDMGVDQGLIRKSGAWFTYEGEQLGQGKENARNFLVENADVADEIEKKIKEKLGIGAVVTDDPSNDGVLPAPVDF

Streptokinase A = biological target: T6, Streptokinase A (Streptococcus pyogenes serotype M1, UniProt P10520); assay: viability-normalized secreted streptokinase activity reduction – plasminogen activation absorbance, OD405, dose response (AID 1914); assay type: functional, Streptococcus pyogenes M1 GAS;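 also: secreted streptokinase activity via plasminogen activation per viability signal from cell pellet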
T6 sequence (P10520 whole entry): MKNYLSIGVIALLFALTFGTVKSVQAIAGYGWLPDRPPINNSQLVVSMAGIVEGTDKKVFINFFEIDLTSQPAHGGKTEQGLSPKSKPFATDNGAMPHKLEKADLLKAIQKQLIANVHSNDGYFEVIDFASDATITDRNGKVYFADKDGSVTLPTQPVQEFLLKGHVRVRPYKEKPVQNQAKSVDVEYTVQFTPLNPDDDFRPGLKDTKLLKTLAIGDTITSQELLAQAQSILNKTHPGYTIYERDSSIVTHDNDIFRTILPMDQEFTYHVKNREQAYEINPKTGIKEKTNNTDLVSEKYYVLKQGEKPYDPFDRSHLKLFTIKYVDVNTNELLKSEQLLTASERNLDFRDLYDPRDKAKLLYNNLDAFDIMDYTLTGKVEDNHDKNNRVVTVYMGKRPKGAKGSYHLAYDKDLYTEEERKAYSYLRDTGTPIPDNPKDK

Cytochrome P450 2D6 = Cytochrome P450 2D6 (Homo sapiens, UniProt P10635);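 also: CYP2D6 member of a cytochrome P450 panel assay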
Chain of Cytochrome P450 2D6 (P10635 whole entry): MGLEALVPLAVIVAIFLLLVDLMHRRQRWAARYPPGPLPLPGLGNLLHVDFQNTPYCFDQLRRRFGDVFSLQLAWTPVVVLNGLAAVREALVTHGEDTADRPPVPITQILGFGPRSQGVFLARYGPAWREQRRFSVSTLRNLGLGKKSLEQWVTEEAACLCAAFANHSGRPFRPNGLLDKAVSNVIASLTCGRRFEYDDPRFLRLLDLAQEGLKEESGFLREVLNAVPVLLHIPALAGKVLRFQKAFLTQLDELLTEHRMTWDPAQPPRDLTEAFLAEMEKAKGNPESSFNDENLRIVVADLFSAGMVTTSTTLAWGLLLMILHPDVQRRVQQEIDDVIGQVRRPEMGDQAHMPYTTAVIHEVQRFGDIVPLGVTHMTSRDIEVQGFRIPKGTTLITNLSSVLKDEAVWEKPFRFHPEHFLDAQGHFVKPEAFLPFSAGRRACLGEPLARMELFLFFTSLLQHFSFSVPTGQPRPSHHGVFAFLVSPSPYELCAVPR

## Oc1cc(C(F)(F)F)nc2c(C(F)(F)F)cccc12
[1]
  EC50: 2.62 µM (active)
cells
  IC50: 50 µM (active)
Streptococcus
  EC50: 8.27 µM (active)

## CCS(=O)(=O)NC(C)C(c1cccs1)N1CCN(c2ccc(OC)cc2)CC1 (stereo not drawn)
[2]
  IC50: 91.3 µM (active)

## O=[N+]([O-])c1ccc(CN2CCN(c3ccccc3Cl)CC2)o1
cells
  IC50: 0.84 µM (active)

## O=C(NC(=S)NCCC1=CCCCC1)c1cncc(Br)c1
[3]
  EC50: > 195 µM (not active)

## CN/C(=N\c1ccc(C2=NNC(=O)C[C@@H]2C)cc1)NC#N
Cytochrome P450 1A2
  AC50: 39.8 µM (inconclusive)

## COc1ccc(OC)c(CN2CCN(Cc3ccc(OC)c(OC)c3OC)CC2)c1
[2]
  IC50: 77.7 µM (active)

## N#CC1=C(S)N(c2ccc(F)cc2)C(c2ccco2)NC1=O (stereo not drawn)
[2]
  IC50: 84.4 µM (active)

## COc1ccc(CN2CCNC(=O)C2CC(=O)NC2CC(C)(C)CC(C)(C)C2)cc1OC (stereo not drawn)
[3]
  EC50: > 195 µM (not active)

## C/C(=N/NC(=O)c1ccncc1)C1=C(O)CC(C)(C)CC1=O
cells
  IC50: 5.71 µM (active)

## CCCc1cc(=O)oc2cc(C)cc(OCC(=O)NCCCn3ccnc3)c12
[3]
  EC50: > 195 µM (not active)

## O=S(=O)(N[C@H]1C[C@@H](NS(=O)(=O)OCC(Cl)(Cl)Cl)C2CCCCC21)OCC(Cl)(Cl)Cl (stereo partly drawn)
[4]
  AC50: 3.31 µM (active)
[1]
  EC50: 2.45 µM (active)
Protein RecA
  EC50: 50.9 µM (active)
Streptokinase A
  EC50: 1.7 µM (active)
Streptococcus
  EC50: 5.38 µM (active)

## O=C(OCc1cccc([N+](=O)[O-])c1)c1ccc2ccccc2n1
cells
  IC50: 5.04 µM (active)

## CCOc1cc(/C=N/NC(=O)c2ccc(NC(=O)C3CC3)cc2)ccc1O
[2]
  IC50: 72.4 µM (active)

## COc1ccc(Oc2ncc3ncc(=O)n(CCc4ccccc4)c3n2)cc1
Cytochrome P450 1A2
  AC50: 0.631 µM (inconclusive)

## CC(C)Oc1ccc(/C=C(/NC(=O)c2ccccc2)C(=O)NCCC(=O)O)cc1
[3]
  EC50: > 195 µM (not active)

## CCN(CC)c1ccc(NC(=O)C2CCCC2)cc1
[2]
  IC50: 63.5 µM (active)

## O=[N+]([O-])c1ccc(SCCc2ccncc2)cc1
[3]
  EC50: > 195 µM (not active)

## COc1ccccc1N1CCN(C[C@@H](C(=O)NC(C)(C)C)c2ccccc2)CC1
Cytochrome P450 2D6
  AC50: 20 µM (inconclusive)
Cytochrome P450 1A2
  AC50: 0.631 µM (inconclusive)

## CCCCCCCC/C=C\CCCCCCCC(=O)NCc1ccc(O)c(OC)c1 [OLVANIL]
Cytochrome P450 1A2
  AC50: 20 µM (inconclusive)

## CCNc1ncc2nc(-c3cn(C)c4ccccc34)c(=O)n(Cc3cccc(OC)c3)c2n1
Cytochrome P450 1A2
  AC50: 12.6 µM (inconclusive)

## CCOC(=O)c1cc(NCc2cccs2)ccc1N1CCOCC1
[2]
  IC50: 93 µM (active)

## CC(=O)Nc1ccc(N=Nc2ccc(O)cc2)cc1
[2]
  IC50: 27.1 µM (active)

## COc1cc(/C=N/NC(=O)CNC(=O)c2cccs2)ccc1O
[2]
  IC50: 42.2 µM (active)

## Cc1ccccc1C(=O)Nc1nnc(-c2ccco2)o1
cells
  IC50: 5.71 µM (active)

## Cc1ccc(C(=O)N/C(=C/c2ccco2)C(=O)Nc2cccc(C(=O)O)c2)cc1
[3]
  EC50: > 195 µM (not active)

## COc1ccccc1NC1=C(Cl)C(=O)N(C2CCCCC2)C1=O
[3]
  EC50: > 195 µM (not active)

## O=C(NCc1cccs1)c1ccccc1[N+](=O)[O-]
[3]
  EC50: > 195 µM (not active)

## CCOC(=O)c1cc(-c2csc(COc3ccccc3Cl)n2)on1
cells
  IC50: 0.4 µM (active)

## CCOC(=O)C(=O)NC12CC3CC(CC(C3)C1)C2
cells
  IC50: 44.5 µM (active)

## CN1CCc2cc(Cl)c(O)cc2[C@H](c2ccccc2)C1
Cytochrome P450 1A2
  AC50: 31.6 µM (inconclusive)

## CCN1CCN(CC(O)COC(c2ccccc2)c2ccccc2C)CC1 (stereo not drawn)
[2]
  IC50: 64.1 µM (active)
